# Test results reported in patent US20210317092A1 (BAYER PHARMA AKTIENGESELLSCHAFT, priority 2016, published 2021).
# Like-named read-outs stand apart in the source and are kept apart here.
# Molecular target: T1, human Bradykinin B1 receptor (Homo sapiens, UniProt P46663)
# T1 construct: host or cells: CHO-K1
# T1 sequence (P46663 1-353): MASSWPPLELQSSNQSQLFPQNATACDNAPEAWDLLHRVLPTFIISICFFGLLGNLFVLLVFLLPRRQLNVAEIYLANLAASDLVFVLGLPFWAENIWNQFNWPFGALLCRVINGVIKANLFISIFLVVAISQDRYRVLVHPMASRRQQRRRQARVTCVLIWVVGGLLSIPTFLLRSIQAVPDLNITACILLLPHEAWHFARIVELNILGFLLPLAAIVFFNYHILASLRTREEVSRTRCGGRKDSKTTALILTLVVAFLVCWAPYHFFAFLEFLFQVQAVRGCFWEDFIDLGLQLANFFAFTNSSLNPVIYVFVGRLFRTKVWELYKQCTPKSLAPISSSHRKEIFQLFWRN
# Assay: Calcium flux Assay (FLIPR) with recombinant CHO-K1 cells expressing human Bradykinin B1 receptor, in presence (hB1 IC50) or absence (hB1 free IC50) of 0.1% BSA
# Type: cell-based
# Protocol: The potency to inhibit the Bradykinin B1 receptor was determined for the compounds of this invention in a cell-based fluorescent calcium-mobilisation assay. The assay measures the ability of test compounds to inhibit Bradykinin B1 receptor agonist-induced increase of intracellular free Ca^2+ in the cell line expressing Bradykinin B1 receptor. […] The change of the intracellular Ca^2+ concentration is monitored with a fluorescent plate reader FLIPR TETRA® (Molecular Devices).
# Calcium flux Assays (FLIPR) with cells expressing human Bradykinin B1 receptor (hB1)
# CHO-K1 cell line expressing human Bradykinin B1 receptor was purchased from Euroscreen (Gosselies, Belgium, with reference name hB1-D1). The cells were grown in Nutrient Mixture Ham's F12 (Sigma) containing 10% Foetal bovine serum (Sigma) and 400 μg/mL G418 (Sigma), 5 μg/mL puromycim (Sigma). […]
# Cells were seeded in a volume of 50 μL in medium without antibiotics and incubated overnight in a humidified atmosphere with 5% CO2 at 37° C. […] The calcium indicator loaded cells were incubated at 37° C. for 2 hrs. Extracellular dye was then removed and each well was filled with 45 μL of assay buffer. Cell plates were kept in dark until used. Compound examples were assayed at 8 concentrations in triplicate. Serial 10-fold dilutions in 100% DMSO were made at a 100-times higher concentration than the final concentration, and then diluted 1:10 in assay buffer. 5 μL of each diluted compound was added to the well of cell plates (yielding final concentration with 1% DMSO), and incubated for 30 min at 28° C. before the addition of Bradykinin B1 receptor agonist on the FLIPR instrument.
# A peptide antagonist Lys-(Des-Arg-Leu)-Bradykinin (Bachem, Brackley) at 20 µM was used to determine the full inhibition as control.
# Peak fluorescence was used to determine the response to agonist obtained at each concentration of compound examples by the following equation:
# % Response=100*(RFU(compound)−RFU(control))/(RFU(DMSO)−RFU(control)) • RFU means relative fluorescence units. • Control means full inhibition by the peptide antagonist Lys-(Des-Arg-Leu)-Bradykinin at 20 µM.
# The response values were plotted against the logarithm of the compound concentrations. The compound examples were tested in triplicates per plate and mean values were plotted in Excel XLfit to determine IC50 values, percentage of maximal inhibition and the Hill slopes.
# [1] = in presence of 0.1% BSA, read-out: hB1 IC50
# [2] = in absence of 0.1% BSA, read-out: hB1 free IC50
Structure (SMILES),IC50 [1] [nM],IC50 [2] [nM]
"COc1ccc(-c2ccc(NC(=O)C(C)(C)c3cccc(Cl)c3)cc2-c2nnn[nH]2)cc1OC [Example 61, 2-(3-chlorophenyl)-N-[3′,4′-dimethoxy-2-(1H-tetrazol-5-yl)biphenyl-4-yl]-2-methyl-propanamide]",2050,–
"COc1ccc(-c2ccc(NC(=O)C3(c4cccc(Cl)c4)CCC3)cc2-c2nnn[nH]2)cc1OC [Example 62, 1-(3-chlorophenyl)-N-[3′,4′-dimethoxy-2-(1H-tetrazol-5-yl)biphenyl-4-yl]cyclobutane-carboxamide]",2430,–
"CCOc1ccc(-c2ccc(NC(=O)C(C)(C)c3cccc(Cl)c3)cc2-c2nnn[nH]2)cn1 [Example 67, 2-(3-chlorophenyl)-N-[4-(6-ethoxypyridin-3-yl)-3-(1H-tetrazol-5-yl)phenyl]-2-methyl-propanamide]",394,–
"CCOc1ccc(-c2ccc(NC(=O)C3(c4cccc(Cl)c4)CCC3)cc2-c2nnn[nH]2)cn1 [Example 68, 1-(3-chlorophenyl)-N-[4-(6-ethoxypyridin-3-yl)-3-(1H-tetrazol-5-yl)phenyl] cyclobutane-carboxamide]",1410,–
"CCOc1ccc(-c2ccc(NC(=O)C3(c4ccc(OC(F)(F)F)cc4)CC3)cc2-c2nnn[nH]2)cn1 [Example 74, N-[4-(6-ethoxypyridin-3-yl)-3-(1H-tetrazol-5-yl)phenyl]-1-[4-(trifluoromethoxy)phenyl] cyclopropane-carboxamide]",18.7,7.76
"CCOc1ccc(-c2ccc(NC(=O)C3(c4ccc(Cl)cc4F)CC3)cc2-c2nnn[nH]2)cn1 [Example 75, 1-(4-chloro-2-fluorophenyl)-N-[4-(6-ethoxypyridin-3-yl)-3-(1H-tetrazol-5-yl)phenyl] cyclopropane-carboxamide]",22.7,14.1
"CCOc1ccc(-c2ccc(NC(=O)C3(c4ccc(C)c(F)c4)CC3)cc2-c2nnn[nH]2)cn1 [Example 76, N-[4-(6-ethoxypyridin-3-yl)-3-(1H-tetrazol-5-yl)phenyl]-1-(3-fluoro-4-methylphenyl) cyclopropane-carboxamide]",24,12
"CCOc1ccc(-c2ccc(NC(=O)C3(c4cc(F)cc(F)c4)CC3)cc2-c2nnn[nH]2)cn1 [Example 84, 1-(3,5-difluorophenyl)-N-[4-(6-ethoxypyridin-3-yl)-3-(1H-tetrazol-5-yl)phenyl] cyclopropane-carboxamide]",41.8,19
"CCOc1ccc(-c2ccc(NC(=O)C3(c4ccc(Cl)cn4)CC3)cc2-c2nnn[nH]2)cn1 [Example 85, 1-(5-chloropyridin-2-yl)-N-[4-(6-ethoxypyridin-3-yl)-3-(1H-tetrazol-5-yl)phenyl] cyclopropane-carboxamide]",63.1,–
"CCOc1ccc(-c2ccc(NC(=O)C3(c4ccc(F)c(OC)c4)CC3)cc2-c2nnn[nH]2)cn1 [Example 87, N-[4-(6-ethoxypyridin-3-yl)-3-(1H-tetrazol-5-yl)phenyl]-1-(4-fluoro-3-methoxyphenyl) cyclopropane-carboxamide]",88,60
"CCOc1ccc(-c2ccc(NC(=O)C3(C)CC3)cc2-c2nnn[nH]2)cn1 [Example 88, N-[4-(6-ethoxypyridin-3-yl)-3-(1H-tetrazol-5-yl)phenyl]-1-methyl-cyclopropane-carboxamide]",111,–
"CCOc1ccc(-c2ccc(NC(=O)C3(CC(C)C)CC3)cc2-c2nnn[nH]2)cn1 [Example 89, N-[4-(6-ethoxypyridin-3-yl)-3-(1H-tetrazol-5-yl)phenyl]-1-isobuty-l cyclopropane-carboxamide]",615,541
"CCOc1ccc(-c2ccc(NC(=O)C3(C(C)C)CC3)cc2-c2nnn[nH]2)cn1 [Example 90, N-[4-(6-ethoxypyridin-3-yl)-3-(1H-tetrazol-5-yl)phenyl]-1-isopropyl-cyclopropane-carboxamide]",1560,–
"CCOc1ccc(-c2ccc(NC(=O)C3(c4ccccc4Cl)CC3)cc2-c2nnn[nH]2)cn1 [Example 93, 1-(2-chlorophenyl)-N-[4-(6-ethoxypyridin-3-yl)-3-(1H-tetrazol-5-yl)phenyl] cyclopropane-carboxamide]",37.1,39.3
"CCOc1ccc(-c2ccc(NC(=O)C3(c4cccc(CC)c4)CC3)cc2-c2nnn[nH]2)cn1 [Example 95, N-[4-(6-ethoxypyridin-3-yl)-3-(1H-tetrazol-5-yl)phenyl]-1-(3-ethylphenyl) cyclopropane-carboxamide]",14.5,10.4
"CCOc1ccc(-c2ccc(NC(=O)C3(c4cc(F)cc(OC)c4)CC3)cc2-c2nnn[nH]2)cn1 [Example 103, N-[4-(6-ethoxypyridin-3-yl)-3-(1H-tetrazol-5-yl)phenyl]-1-(3-fluoro-5-methoxyphenyl) cyclopropane-carboxamide]",28.1,–
"CCOc1ccc(-c2ccc(NC(=O)C3(c4cc(OC)ccc4F)CC3)cc2-c2nnn[nH]2)cn1 [Example 104, N-[4-(6-ethoxypyridin-3-yl)-3-(1H-tetrazol-5-yl)phenyl]-1-(2-fluoro-5-methoxyphenyl) cyclopropane-carboxamide]",46.4,–
"CCOc1ccc(-c2ccc(NC(=O)C3(c4cccc(F)c4Cl)CC3)cc2-c2nnn[nH]2)cn1 [Example 106, 1-(2-chloro-3-fluorophenyl)-N-[4-(6-ethoxypyridin-3-yl)-3-(1H-tetrazol-5-yl)phenyl] cyclopropane-carboxamide]",56,–
"CCOc1ccc(-c2ccc(NC(=O)C3(c4cccc(Cl)n4)CC3)cc2-c2nnn[nH]2)cn1 [Example 107, 1-(6-chloropyridin-2-yl)-N-[4-(6-ethoxypyridin-3-yl)-3-(1H-tetrazol-5-yl)phenyl] cyclopropane-carboxamide]",134,177
"CCOc1ccc(-c2ccc(NC(=O)C3(c4ccc(Cl)nc4)CC3)cc2-c2nnn[nH]2)cn1 [Example 108, 1-(6-chloropyridin-3-yl)-N-[4-(6-ethoxypyridin-3-yl)-3-(1H-tetrazol-5-yl)phenyl] cyclopropane-carboxamide]",338,–
"CCOc1ccc(-c2ccc(NC(=O)C3(C4CCC(C)(C)CC4)CC3)cc2-c2nnn[nH]2)cn1 [Example 109, 1-(4,4-dimethylcyclo-hexyl)-N-[4-(6-ethoxypyridin-3-yl)-3-(1H-tetrazol-5-yl)phenyl] cyclopropane-carboxamide]",12.2,–
"COc1ccc(-c2ccc(NC(=O)C3(c4ccc(C)cc4)CC3)cc2-c2nnn[nH]2)cc1 [Example 115, N-[4′-methoxy-2-(1H-tetrazol-5-yl)biphenyl-4-yl]-1-(4-methylphenyl) cyclopropane-carboxamide]",169,–
"COc1ccc(-c2ccc(NC(=O)C3(c4cccc(Cl)c4)CC3)cc2-c2nnn[nH]2)cc1C [Example 116, 1-(3-chlorophenyl)-N-[4′-methoxy-3′-methyl-2-(1H-tetrazol-5-yl)biphenyl-4-yl]cyclopropane carboxamide]",177,–
"COc1ccc(-c2ccc(NC(=O)C3(c4cccc(Cl)c4)CC3)cc2-c2nnn[nH]2)cc1Cl [Example 117, N-[3′-chloro-4′-methoxy-2-(1H-tetrazol-5-yl)biphenyl-4-yl]-1-(3-chlorophenyl) cyclopropane-carboxamide]",448,–
"COc1ccc(-c2ccc(NC(=O)C3(c4cccc(Cl)c4)CC3)cc2-c2nnn[nH]2)c(C)c1 [Example 118, 1-(3-chlorophenyl)-N-[4′-methoxy-2′-methyl-2-(1H-tetrazol-5-yl)biphenyl-4-yl]cyclopropane carboxamide]",1820,–
"COCc1ccc(-c2ccc(NC(=O)C3(c4cccc(Cl)c4)CC3)cc2-c2nnn[nH]2)cc1C [Example 124, 1-(3-chlorophenyl)-N-[4′-(methoxymethyl)-3′-methyl-2-(1H-tetrazol-5-yl)biphenyl-4-yl]cyclopropane carboxamide]",38.3,–
